Experimental data published in US20240139211A1, “METHODS AND COMPOSITIONS FOR TREATING AMYOTROPHIC LATERAL SCLEROSIS” (Amylyx Pharmaceuticals, Inc., priority 2022, published 2024).
Where two headings read alike, the source gives them in different places.

What was measured:
MATE2K = MATE2K (Homo sapiens, UniProt Q86VL8); assay: MATE2K inhibition, metformin uptake in transfected HEK cells; conditions: read-out: Estimated IC50 toward MATE2K; TUDCA and PB present simultaneously
human plasma protein = assay: Human plasma protein binding; format: in vitro ADME
[1] = molecular target: T1, CYPs in human liver microsomes (HLM) (Homo sapiens, UniProt P20813); assay: CYP reaction phenotyping in HLM with chemical inhibitors (% remaining); conditions: +NADPH +thio-TEPA (CYP2B6)
T1 sequence (P20813 1-491): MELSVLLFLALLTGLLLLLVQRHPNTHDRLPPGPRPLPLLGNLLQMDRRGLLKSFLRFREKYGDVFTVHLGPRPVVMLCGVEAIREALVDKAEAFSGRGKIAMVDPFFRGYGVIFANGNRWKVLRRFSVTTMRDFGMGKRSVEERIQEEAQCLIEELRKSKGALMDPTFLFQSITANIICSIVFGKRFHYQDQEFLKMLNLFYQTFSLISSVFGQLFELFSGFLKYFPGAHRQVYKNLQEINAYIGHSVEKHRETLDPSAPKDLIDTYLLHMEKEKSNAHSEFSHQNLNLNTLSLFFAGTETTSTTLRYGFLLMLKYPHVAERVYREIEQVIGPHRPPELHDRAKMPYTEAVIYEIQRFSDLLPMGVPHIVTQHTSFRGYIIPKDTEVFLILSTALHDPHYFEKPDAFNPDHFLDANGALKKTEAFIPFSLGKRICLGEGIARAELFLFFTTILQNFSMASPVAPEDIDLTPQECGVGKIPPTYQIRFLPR

[2] = molecular target: T2, CYPs in human liver microsomes (HLM) (Homo sapiens, UniProt P10632); assay: as above; conditions: +NADPH +montelukast (CYP2C8)
T2 sequence (P10632 1-490): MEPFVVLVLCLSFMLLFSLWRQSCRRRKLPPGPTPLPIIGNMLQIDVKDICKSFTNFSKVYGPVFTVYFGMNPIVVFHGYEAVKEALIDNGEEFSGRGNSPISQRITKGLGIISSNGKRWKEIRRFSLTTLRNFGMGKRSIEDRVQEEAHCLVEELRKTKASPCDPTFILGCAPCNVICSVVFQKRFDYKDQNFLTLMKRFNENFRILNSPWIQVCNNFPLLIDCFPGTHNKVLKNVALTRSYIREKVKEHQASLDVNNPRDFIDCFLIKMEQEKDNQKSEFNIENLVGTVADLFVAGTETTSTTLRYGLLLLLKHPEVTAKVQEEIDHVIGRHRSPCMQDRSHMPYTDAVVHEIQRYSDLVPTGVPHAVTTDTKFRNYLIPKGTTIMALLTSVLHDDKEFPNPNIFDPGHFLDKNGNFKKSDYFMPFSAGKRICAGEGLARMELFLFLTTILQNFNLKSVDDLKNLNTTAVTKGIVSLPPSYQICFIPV

[3] = molecular target: T1, CYPs in human liver microsomes (HLM); conditions: 1 h
[4] = molecular target: CYPs in human liver microsomes (HLM) (Homo sapiens, UniProt P10635); conditions: 5 min
[5] = molecular target: CYPs in human liver microsomes (HLM) (Homo sapiens, UniProt P11712); conditions: 5 min
[6] = test system: CYPs in human liver microsomes (HLM)
in vivo = conditions: male, CD (Sprague-Dawley) IGS, rat, po, 840 mg/kg
BCRP = molecular target: T3, BCRP (Homo sapiens, UniProt Q9UNQ0); assay: in vitro; conditions: Caco-2 cells, probe 3H-estrone-3-sulfate
T3 sequence (Q9UNQ0 1-655): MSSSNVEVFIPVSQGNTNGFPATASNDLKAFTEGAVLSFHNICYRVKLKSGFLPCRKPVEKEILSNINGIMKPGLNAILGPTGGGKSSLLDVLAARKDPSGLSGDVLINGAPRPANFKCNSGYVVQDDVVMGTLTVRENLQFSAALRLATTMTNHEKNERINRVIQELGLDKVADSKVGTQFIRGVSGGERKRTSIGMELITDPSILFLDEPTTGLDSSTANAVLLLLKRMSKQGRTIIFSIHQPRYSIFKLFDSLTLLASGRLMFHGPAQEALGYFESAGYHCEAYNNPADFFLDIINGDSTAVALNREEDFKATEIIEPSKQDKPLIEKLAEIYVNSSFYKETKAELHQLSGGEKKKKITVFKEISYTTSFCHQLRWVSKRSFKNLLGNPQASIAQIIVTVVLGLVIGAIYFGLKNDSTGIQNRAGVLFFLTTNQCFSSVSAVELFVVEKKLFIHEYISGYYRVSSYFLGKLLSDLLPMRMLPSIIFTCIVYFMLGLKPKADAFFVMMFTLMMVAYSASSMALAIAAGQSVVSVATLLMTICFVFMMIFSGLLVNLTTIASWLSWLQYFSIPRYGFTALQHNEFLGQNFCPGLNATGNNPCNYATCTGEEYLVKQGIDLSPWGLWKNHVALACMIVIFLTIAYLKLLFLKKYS

CYP3A4 mRNA = assay: in vitro; conditions: human, hepatocyte cultures
CYP1A2 = CYP1A2 enzyme activity induction in hepatocyte cultures

MATE2K, sequence (Q86VL8 1-566 isoform Q86VL8-3): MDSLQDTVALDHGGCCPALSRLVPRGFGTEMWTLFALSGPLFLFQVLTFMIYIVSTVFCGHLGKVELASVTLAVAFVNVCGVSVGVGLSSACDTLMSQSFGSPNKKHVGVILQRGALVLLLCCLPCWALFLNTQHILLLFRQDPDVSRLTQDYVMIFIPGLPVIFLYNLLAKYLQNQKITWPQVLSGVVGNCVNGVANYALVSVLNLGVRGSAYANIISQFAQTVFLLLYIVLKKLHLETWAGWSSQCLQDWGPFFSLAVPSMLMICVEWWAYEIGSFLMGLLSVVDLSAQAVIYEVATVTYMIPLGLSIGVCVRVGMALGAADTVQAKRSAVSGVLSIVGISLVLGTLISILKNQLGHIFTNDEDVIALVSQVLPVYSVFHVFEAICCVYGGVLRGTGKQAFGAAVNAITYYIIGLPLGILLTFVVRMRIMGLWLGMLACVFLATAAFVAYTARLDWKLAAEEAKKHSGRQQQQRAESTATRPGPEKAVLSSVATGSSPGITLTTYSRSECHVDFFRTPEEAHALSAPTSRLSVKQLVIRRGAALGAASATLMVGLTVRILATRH
CYPs in human liver microsomes (HLM) (Homo sapiens, UniProt P10635), sequence (P10635 whole entry): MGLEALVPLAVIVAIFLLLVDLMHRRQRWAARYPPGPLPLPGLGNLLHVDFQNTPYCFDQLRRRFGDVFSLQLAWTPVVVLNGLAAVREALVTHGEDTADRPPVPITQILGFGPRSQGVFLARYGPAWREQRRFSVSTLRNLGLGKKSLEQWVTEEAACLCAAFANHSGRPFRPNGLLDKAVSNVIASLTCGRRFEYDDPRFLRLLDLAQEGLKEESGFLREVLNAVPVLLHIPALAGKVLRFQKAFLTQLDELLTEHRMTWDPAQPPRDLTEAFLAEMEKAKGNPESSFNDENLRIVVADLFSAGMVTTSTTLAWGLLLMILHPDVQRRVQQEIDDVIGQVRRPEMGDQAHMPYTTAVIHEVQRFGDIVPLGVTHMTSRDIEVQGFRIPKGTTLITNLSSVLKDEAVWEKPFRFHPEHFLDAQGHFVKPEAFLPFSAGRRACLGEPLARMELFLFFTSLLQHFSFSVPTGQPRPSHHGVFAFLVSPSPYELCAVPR
CYPs in human liver microsomes (HLM) (Homo sapiens, UniProt P11712), sequence (P11712 whole entry): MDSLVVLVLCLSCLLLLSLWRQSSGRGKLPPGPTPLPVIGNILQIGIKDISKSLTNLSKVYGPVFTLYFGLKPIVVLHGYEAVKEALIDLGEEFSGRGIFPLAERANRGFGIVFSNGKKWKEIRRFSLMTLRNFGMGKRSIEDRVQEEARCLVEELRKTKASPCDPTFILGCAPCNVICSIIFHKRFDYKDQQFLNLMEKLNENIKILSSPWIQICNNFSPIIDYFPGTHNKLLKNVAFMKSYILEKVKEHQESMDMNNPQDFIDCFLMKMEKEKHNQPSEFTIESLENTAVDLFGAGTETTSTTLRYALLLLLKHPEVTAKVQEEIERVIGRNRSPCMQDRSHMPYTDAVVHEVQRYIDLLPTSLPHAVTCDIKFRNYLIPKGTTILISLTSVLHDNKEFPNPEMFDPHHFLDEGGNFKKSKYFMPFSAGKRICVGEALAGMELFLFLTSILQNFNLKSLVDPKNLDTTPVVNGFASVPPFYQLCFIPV

tauroursodeoxycholic acid [TUDCA]
IC50 (MATE2K): > 810 µM
Human Plasma Protein Binding (%) (human plasma protein): 98.5%
% remaining of TA in HLM ([1]; 5 min): 112%
% remaining of TA in HLM ([1]; 10 min): 112%
% remaining of TA in HLM ([1]; 20 min): 122%
% remaining of TA in HLM ([1]; 30 min): 116%
% remaining of TA in HLM ([2]; 5 min): 101%
% remaining of TA in HLM ([2]; 10 min): 103%
% remaining of TA in HLM ([2]; 20 min): 95.5%
% remaining of TA in HLM ([2]; 30 min): 105%
% remaining of TA in HLM ([2]; 60 min): 97.7%
% remaining of TA in HLM [3]: 102%
% remaining of TA in HLM [4]: 101%
% remaining of TA in HLM [5]: 102%
% remaining of TA in HLM ([6]; 5 min): 103%
% remaining of TA in HLM ([6]; 1 h): 105%

O=C(O)CCCc1ccccc1 [PB, sodium phenylbutyrate]
Tmax (in vivo): 15 to 30 min

C[C@H](CCC(=O)NCC(=O)O)[C@H]1CC[C@H]2[C@@H]3[C@@H](O)C[C@@H]4C[C@H](O)CC[C@]4(C)[C@H]3CC[C@]12C [Glycoursodeoxycholic acid, glycoursodeoxycholic acid]
potency estimated from few doses (BCRP): > 100 µM
fold induction at 72 h (CYP3A4 mRNA): 2.44
Maximum fold induction of CYP1A2 activity (CYP1A2; Donor 1, 72±2 h, three concentrations): 5.93 fold
Maximum fold induction of CYP1A2 activity (CYP1A2; Donor 2): 3.08 fold
Maximum fold induction of CYP1A2 activity (CYP1A2; Donor 3): 9.43 fold
